From patent publication US20150105252A1, “SUBSTITUTED PYRAZOLES AS HERBICIDES” (E I DU PONT DE NEMOURS AND COMPANY, priority 2013, published 2015)

Assays:
[1] = system: nutsedge, yellow; test: Test C preemergence; format: in vivo, Cyperus esculentus; details: for Nutsedge, Yellow plant response rating / Plant response rating, Nutsedge, Yellow: preemergence; for Plant response rating, Nutsedge, Yellow: scale 0 to 100, 0 = no effect, 100 = complete control
Procedure, shortened: (§1)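 Seeds were sown in a loam soil–sand blend and sprayed preemergence with compounds formulated in a non-phytotoxic solvent mixture containing surfactant. Postemergence plants, grown in peat/vermiculite medium to 2–18 cm (1- to 4-leaf stage), received the same formulation. After 13 to 15 days in a greenhouse, injury was rated visually against controls (0 = no effect, 100 = complete control).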

[2] = system: crabgrass, large; test: Test C preemergence; format: in vivo, Digitaria sanguinalis; details: for Crabgrass, Large plant response rating / Plant response rating, Crabgrass, Large: preemergence; for Plant response rating, Crabgrass, Large: scale 0 to 100, 0 = no effect, 100 = complete control
Procedure, shortened: as §1

[3] = system: ryegrass, Italian; test: Test C preemergence; format: in vivo, Lolium multiflorum; details: for Ryegrass, Italian plant response rating / Plant response rating, Ryegrass, Italian: preemergence; for Plant response rating, Ryegrass, Italian: scale 0 to 100, 0 = no effect, 100 = complete control
Procedure, shortened: as §1

[4] = system: pigweed; test: Test C preemergence; format: in vivo, Amaranthus retroflexus; details: for Pigweed plant response rating / Plant response rating, Pigweed: preemergence; for Plant response rating, Pigweed: scale 0 to 100, 0 = no effect, 100 = complete control
Procedure, shortened: as §1

[5] = system: sedge, umbrella; test: Test B flood; format: in vivo, Cyperus difformis; details: 250 g ai/ha, visual rating on 0 to 100 scale (0 no effect, 100 complete control), 13 to 15 days
Procedure, shortened: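 Response scored visually, 0–100 relative to controls, 13–15 days after the compound was applied into paddy water; plants were at the 2-leaf stage in pots kept flooded to 3 cm.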

[6] = system: morningglory; test: Test A postemergence; format: in vivo, Ipomoea spp.
Procedure, shortened: (§2)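 Both timings tested concurrently in loam/sand soil: preemergence by directed soil spray, postemergence on plants of 2–10 cm at the one- to two-leaf stage. Greenhouse holding period was approximately 10 days before visual injury assessment (0–100, 0 = no effect).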

[7] = system: morningglory; test: Test C preemergence; format: in vivo, Ipomoea coccinea; details: for Morningglory plant response rating / Plant response rating, Morningglory: preemergence; for Plant response rating, Morningglory: scale 0 to 100, 0 = no effect, 100 = complete control
Procedure, shortened: as §1

[8] = system: velvetleaf; test: Test A postemergence; format: in vivo, Abutilon theophrasti
Procedure, shortened: as §2

[9] = system: morningglory; test: Test A preemergence; format: in vivo, Ipomoea spp.; details: preemergence
Procedure, shortened: as §2

[10] = system: galium; test: Test C preemergence; format: in vivo, Galium aparine; details: for Galium plant response rating / Plant response rating, Galium: preemergence; for Plant response rating, Galium: scale 0 to 100, 0 = no effect, 100 = complete control
Procedure, shortened: as §1

[11] = system: foxtail, giant; test: Test A postemergence; format: in vivo, Setaria faberii
Procedure, shortened: as §2

[12] = system: soybean; test: Test C preemergence; format: in vivo, Glycine max; details: for Soybean plant response rating / Plant response rating, Soybean: preemergence; for Plant response rating, Soybean: scale 0 to 100, 0 = no effect, 100 = complete control
Procedure, shortened: as §1

[13] = system: pigweed; test: Test A preemergence; format: in vivo, Amaranthus retroflexus; details: preemergence
Procedure, shortened: as §2

[14] = system: corn; test: Test A postemergence; format: in vivo, Zea mays
Procedure, shortened: as §2

[15] = 31 g ai/ha, visual rating, scale 0 to 100 (0 no effect, 100 complete control), 13 to 15 days
[16] = 125 g ai/ha, scale 0 to 100, 0 is no effect, 100 is complete control
[17] = Postemergence, 500 g ai/ha, visual rating after approx. 10 days, 0 to 100 scale (0 no effect, 100 complete control)
[18] = postemergence, 125 g ai/ha, about 10 days, visual rating on 0 to 100 scale (0 no effect, 100 complete control)
[19] = 125 g ai/ha, visual injury, 0 to 100 scale, approx. 10 days
[20] = 500 g ai/ha, visual injury after approx. 10 days, 0 to 100 scale (0 no effect, 100 complete control)
[21] = 62 g ai/ha, scale 0 to 100 (0 no effect, 100 complete control), 13 to 15 days
[22] = 250 g ai/ha, scale 0 to 100, 0 is no effect, 100 is complete control
[23] = Postemergence, 125 g ai/ha, 0 to 100 scale, 0 no effect, 100 complete control
[24] = Postemergence, 500 g ai/ha, 0 to 100 scale (0 no effect, 100 complete control)
[25] = 125 g ai/ha, visual injury approx. 10 days after treatment

CCOc1cc(C(=O)NCC(F)(F)F)nn1Cc1ccnc(C(F)(F)F)c1 [Compound 104]
Plant response rating (scale of 0 to 100), Nutsedge, Yellow ([1]; Preemergence, 250 g ai/ha): 98
Nutsedge, Yellow plant response rating [1, 15]: 70
Plant response rating, Nutsedge, Yellow ([1]; 62 g ai/ha, 13 to 15 days): 95
Nutsedge, Yellow plant response rating [1, 16]: 98
Plant response rating (scale of 0 to 100), Crabgrass, Large ([2]; Preemergence, 250 g ai/ha): 100
Crabgrass, Large plant response rating [2, 15]: 100
Plant response rating, Crabgrass, Large ([2]; 62 g ai/ha, 13 to 15 days): 100
Crabgrass, Large plant response rating [2, 16]: 100
Plant response rating (scale of 0 to 100), Ryegrass, Italian ([3]; Preemergence, 250 g ai/ha): 95
Ryegrass, Italian plant response rating [3, 15]: 80
Plant response rating, Ryegrass, Italian ([3]; 62 g ai/ha, 13 to 15 days): 90
Ryegrass, Italian plant response rating [3, 16]: 95
Plant response rating (scale of 0 to 100), Pigweed ([4]; Preemergence, 250 g ai/ha): 100
Pigweed plant response rating [4, 15]: 100
Plant response rating, Pigweed ([4]; 62 g ai/ha, 13 to 15 days): 100
Pigweed plant response rating [4, 16]: 100
Plant response rating, Sedge, Umbrella [5]: 0
Morningglory plant response rating [6, 17]: 100
Morningglory plant response rating [6, 18]: 100
Plant response rating (scale of 0 to 100), Morningglory ([7]; Preemergence, 250 g ai/ha): 100
Morningglory plant response rating [7, 15]: 100
Plant response rating, Morningglory ([7]; 62 g ai/ha, 13 to 15 days): 100
Morningglory plant response rating [7, 16]: 100
Velvetleaf plant response rating [8, 17]: 100
Velvetleaf plant response rating [8, 18]: 90
Morningglory plant response rating [9, 19]: 100
Morningglory plant response rating [9, 20]: 100
Plant response rating (scale of 0 to 100), Galium ([10]; Preemergence, 250 g ai/ha): 100
Galium plant response rating [10, 15]: 90
Plant response rating, Galium ([10]; 62 g ai/ha, 13 to 15 days): 98
Galium plant response rating [10, 16]: 100
Foxtail, Giant plant response rating [11, 17]: 90
Foxtail, Giant plant response rating [11, 18]: 90
Plant response rating (scale of 0 to 100), Soybean ([12]; Preemergence, 250 g ai/ha): 98
Soybean plant response rating [12, 15]: 85
Plant response rating, Soybean ([12]; 62 g ai/ha, 13 to 15 days): 95
Soybean plant response rating [12, 16]: 98
Pigweed plant response rating [13, 19]: 100
Pigweed plant response rating [13, 20]: 100
Corn plant response rating [14, 17]: 100
Corn plant response rating [14, 18]: 90

CCONC(=O)c1cc(OCC)n(Cc2ccnc(C(F)(F)F)c2)n1 [Compound 195]
Nutsedge, Yellow plant response rating [1, 15]: 20
Nutsedge, Yellow plant response rating [1, 21]: 85
Plant response rating, Nutsedge, Yellow ([1]; 125 g ai/ha, 13 to 15 days): 85
Nutsedge, Yellow plant response rating [1, 22]: 95
Crabgrass, Large plant response rating [2, 15]: 100
Crabgrass, Large plant response rating [2, 21]: 95
Plant response rating, Crabgrass, Large ([2]; 125 g ai/ha, 13 to 15 days): 100
Crabgrass, Large plant response rating [2, 22]: 100
Ryegrass, Italian plant response rating [3, 15]: 10
Ryegrass, Italian plant response rating [3, 21]: 60
Plant response rating, Ryegrass, Italian ([3]; 125 g ai/ha, 13 to 15 days): 90
Ryegrass, Italian plant response rating [3, 22]: 90
Pigweed plant response rating [4, 21]: 98
Plant response rating, Pigweed ([4]; 125 g ai/ha, 13 to 15 days): 100
Pigweed plant response rating [4, 22]: 100
Plant response rating, Sedge, Umbrella [5]: 95
Morningglory plant response rating [6, 23]: 70
Morningglory plant response rating [6, 24]: 100
Morningglory plant response rating [7, 15]: 35
Morningglory plant response rating [7, 21]: 100
Plant response rating, Morningglory ([7]; 125 g ai/ha, 13 to 15 days): 100
Morningglory plant response rating [7, 22]: 100
Velvetleaf plant response rating [8, 23]: 70
Velvetleaf plant response rating [8, 24]: 100
Morningglory plant response rating (0 to 100 scale) [9, 25]: 90
Morningglory plant response rating [9, 20]: 100
Galium plant response rating [10, 15]: 0
Galium plant response rating [10, 21]: 85
Plant response rating, Galium ([10]; 125 g ai/ha, 13 to 15 days): 95
Galium plant response rating [10, 22]: 100
Foxtail, Giant plant response rating [11, 24]: 100
Foxtail, Giant plant response rating [11, 18]: 80
Soybean plant response rating [12, 15]: 5
Soybean plant response rating [12, 21]: 5
Plant response rating, Soybean ([12]; 125 g ai/ha, 13 to 15 days): 25
Soybean plant response rating [12, 22]: 60
Pigweed plant response rating (0 to 100 scale) [13, 25]: 100
Pigweed plant response rating [13, 20]: 100
Corn plant response rating [14, 24]: 90
Corn plant response rating [14, 18]: 80
